Measured values: patent publication EP1202975B1, “SUBSTITUTED POLYCYCLIC ARYL AND HETEROARYL PYRAZINONES USEFUL FOR SELECTIVE INHIBITION OF THE COAGULATION CASCADE” (Pharmacia Corporation, priority 1999, dated 2000)
Where two headings read alike, the source gives them in different places.

Legend:
Human factor Xa = Human factor Xa (Homo sapiens, UniProt P00742)
TF-VIIa = molecular target: T1, TF-VIIa (Homo sapiens, UniProt P08709); assay: TF-VIIa Assay; format: biochemical
T1 construct: 2nM recombinant human factor VIIa; purchased American Diagnostica, Greenwich CT; host or cells: soluble TF made in house in E. coli

[1] = read-out: IC50 or % Inhibition TF-VIIa (30 µM); cells given as a plain number (IC50)
[2] = read-out: IC50 or % Inhibition TF-VIIa (30 µM); cells without % sign: IC50
[3] = cells given as a plain number (IC50); read-out: IC50 or % Inhibition TF-VIIa (30 µM)

Chain of Human factor Xa (P00742 235-488 limits assumed): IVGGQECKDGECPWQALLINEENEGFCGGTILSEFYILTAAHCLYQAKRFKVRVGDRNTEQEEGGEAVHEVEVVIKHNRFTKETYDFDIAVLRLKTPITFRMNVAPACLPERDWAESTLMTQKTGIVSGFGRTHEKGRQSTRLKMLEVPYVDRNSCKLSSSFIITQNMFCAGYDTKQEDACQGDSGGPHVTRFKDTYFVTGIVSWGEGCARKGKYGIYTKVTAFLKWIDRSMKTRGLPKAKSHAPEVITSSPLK
Chain of Human factor Xa (P00742 41-179 limits assumed): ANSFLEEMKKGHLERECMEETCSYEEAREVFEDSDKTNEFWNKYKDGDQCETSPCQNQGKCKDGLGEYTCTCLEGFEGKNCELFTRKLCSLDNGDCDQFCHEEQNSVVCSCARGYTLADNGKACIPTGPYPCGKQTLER
T1 sequence (P08709 213-466 limits assumed): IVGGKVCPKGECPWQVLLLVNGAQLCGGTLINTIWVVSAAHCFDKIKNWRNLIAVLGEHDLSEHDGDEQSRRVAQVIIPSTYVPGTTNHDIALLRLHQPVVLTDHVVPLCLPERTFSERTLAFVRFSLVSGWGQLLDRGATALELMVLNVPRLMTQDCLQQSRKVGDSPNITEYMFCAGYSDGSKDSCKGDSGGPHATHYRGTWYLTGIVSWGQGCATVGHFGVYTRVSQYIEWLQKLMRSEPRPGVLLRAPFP
T1 sequence (P08709 61-212 limits assumed): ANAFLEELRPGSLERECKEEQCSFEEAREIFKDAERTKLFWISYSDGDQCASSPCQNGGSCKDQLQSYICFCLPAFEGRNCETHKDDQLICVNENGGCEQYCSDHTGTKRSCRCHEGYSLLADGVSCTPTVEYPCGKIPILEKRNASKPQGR
T1 sequence (P13726 33-251 partner limits assumed): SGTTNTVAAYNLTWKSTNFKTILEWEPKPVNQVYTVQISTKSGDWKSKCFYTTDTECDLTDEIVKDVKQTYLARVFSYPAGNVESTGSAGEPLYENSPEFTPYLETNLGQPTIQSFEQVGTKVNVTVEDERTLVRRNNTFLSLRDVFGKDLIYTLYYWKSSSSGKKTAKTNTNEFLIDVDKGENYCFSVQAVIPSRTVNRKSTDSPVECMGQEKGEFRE

Row | % Inhibition Factor Xa (100 µM) (Human factor Xa) [%] | % Inhibition TF-VIIa (100 µM) (TF-VIIa) [%] | IC50 or % Inhibition Factor Xa (30 µM) (Human factor Xa) [%] | IC50 (TF-VIIa; [1]) [µM] | Structure (SMILES) | further results
1 | 0 | 2 |  |  | Cc1c(Cl)nc(NCCc2ccncc2)c(=O)n1CC(=O)NCCc1ccncc1 [Example E-0006] | 
2 | 0 | 0 |  |  | Cc1c(Cl)nc(NCc2ccncc2)c(=O)n1CC(=O)NCCc1ccncc1 [Example E-0008] | 
3 | 0 | 0 |  |  | O=C(Cn1c(-c2ccc3c(c2)OCO3)c(Cl)nc(NCCc2cccc(Cl)c2)c1=O)NCCc1ccncc1 [Example E-0043] | 
4 | 0 | 0 |  |  | O=C(Cn1c(-c2ccc(-c3ccccc3)cc2)c(Cl)nc(NCCc2cccnc2)c1=O)NCCc1ccncc1 [Example E-0053] | 
5 | 0 | 0 |  |  | COc1ccc(-c2c(Cl)nc(NCCc3cccnc3)c(=O)n2CC(=O)NCCc2ccncc2)cc1 [Example E-0037] | 
6 | 0 | 0 |  |  | O=C(Cn1c(CCc2ccccc2)c(Cl)nc(NCCc2cccc(Cl)c2)c1=O)NCCc1ccncc1 [Example E-0067] | 
7 | 0 | 0 |  |  | O=C(Cn1c(CCc2ccccc2)c(Cl)nc(NCCc2ccccc2)c1=O)NCCc1ccncc1 [Example E-0066] | 
8 | 0 | 0 |  |  | O=C(Cn1c(-c2ccc3c(c2)OCO3)c(Cl)nc(NCCc2ccc(Cl)cc2)c1=O)NCCc1ccncc1 [Example E-0044] | 
9 | 0 | 0 |  |  | O=C(Cn1c(-c2ccccc2)c(Cl)nc(NCCc2ccccc2)c1=O)NCCc1ccncc1 [Example E-0010] | 

Continued, compound first:

Row | Structure (SMILES) | % Inhibition Factor Xa (100 µM) (Human factor Xa) [%] | % Inhibition TF-VIIa (100 µM) (TF-VIIa) [%] | IC50 or % Inhibition Factor Xa (30 µM) (Human factor Xa) [%] | IC50 (TF-VIIa; [1]) [µM] | further results
10 | N=C(N)c1ccc(CNC(=O)Cn2c(-c3ccccc3)c(Cl)nc(NCC(c3ccccc3)c3ccccc3)c2=O)cc1 [1507-09] |  |  | 13 | 22.6 | 
11 | N=C(N)c1ccc(CNC(=O)C(Cc2ccccc2)n2c(-c3ccccc3)c(Cl)nc(NCCc3cccc(Cl)c3)c2=O)cc1 (centres unmarked) [1517-20] |  |  | 0 |  | IC50 or % Inhibition TF-VIIa (30 µM) (TF-VIIa): 22%
12 | N=C(N)c1ccc(CNC(=O)Cn2c(-c3cccc(N)c3)c(Cl)nc(NCCCN3CCCC3)c2=O)cc1 [1543-27] |  |  | 27 |  | IC50 (TF-VIIa; [2]): 0.38 µM
13 | N=C(N)c1ccc(CNC(=O)Cn2c(-c3ccc4c(c3)OCO4)c(Cl)nc(NCc3ccccc3)c2=O)cc1 [1471-41] |  |  | 34 | 18.3 | 
14 | N=C(N)c1ccc(CNC(=O)Cn2c(-c3ccccc3)c(Cl)nc(NC3CCc4ccccc43)c2=O)cc1 (centres unmarked) [1507-02] |  |  | 9 | 9.4 | 
15 | N=C(N)c1ccc(CNC(=O)Cn2c(-c3ccccc3)c(Cl)nc(NCc3cc(Cl)ccc3Cl)c2=O)cc1 [1512-35] |  |  | 4 | 22.5 | 
16 | CC(C)N(C)c1nc(Cl)c(-c2ccccc2)n(CC(=O)NCc2ccc(C(=N)N)cc2)c1=O [1517-31] |  |  | 0 |  | IC50 (TF-VIIa; [3]): 9.1 µM
17 | N=C(N)c1ccc(CNC(=O)Cn2c(-c3cccc(Cl)c3)c(Cl)nc(NCc3ccncc3)c2=O)cc1 [1471-27] |  |  | 16 | 4.19 | 
18 | N=C(N)c1ccc(CNC(=O)Cn2c(-c3ccccc3)c(Cl)nc(NCc3cc(C(F)(F)F)ccc3F)c2=O)cc1 [1512-27] |  |  | 3 | 16.5 | 
19 | N=C(N)c1ccc(CNC(=O)Cn2c(-c3ccccc3)c(Cl)nc(NCc3ccc(C(F)(F)F)cc3F)c2=O)cc1 [1512-26] |  |  | 5 | 26.9 | 
20 | N=C(N)c1ccc(CNC(=O)Cn2c(-c3cccc(Cl)c3)c(Cl)nc(NCCc3cccnc3)c2=O)cc1 [1471-32] |  |  | 25 | 1.19 | 
21 | Cc1c(Cl)nc(NCCc2ccncc2)c(=O)n1CC(=O)NCc1ccc(C(=N)N)cc1 [1471-5] |  |  | 12 | 8.69 | 
22 | CNc1nc(Cl)c(-c2cccc(N)c2)n(CC(=O)NCc2ccc(C(=N)N)cc2)c1=O [1543-05] |  |  | 14 |  | IC50 (TF-VIIa; cells without % sign: IC50; read-out: IC50 or % Inhibition TF-VIIa (30 µM)): 0.06 µM
23 | N=C(N)c1ccc(CNC(=O)Cn2c(-c3ccc(-c4ccccc4)cc3)c(Cl)nc(NCCc3cccnc3)c2=O)cc1 [1471-72] |  |  | 22 |  | IC50 or % Inhibition TF-VIIa (30 µM) (TF-VIIa): 15%
24 | N=C(N)c1ccc(CNC(=O)Cn2c(-c3ccccc3)c(Cl)nc(NCCC3=CCCCC3)c2=O)cc1 [1507-17] |  |  | 16 | 27.4 | 
25 | Cc1c(Cl)nc(NCc2ccncc2)c(=O)n1CC(=O)NCc1ccc(C(=N)N)cc1 [1471-3] |  |  | 0 | 13.6 | 
26 | N=C(N)c1ccc(CNC(=O)Cn2c(-c3cccc(N)c3)c(Cl)nc(NC3CC3)c2=O)c(F)c1 [1543-33] |  |  | 14 |  | IC50 (TF-VIIa; [2]): 0.03 µM
27 | N=C(N)c1ccc(CNC(=O)Cn2c(-c3ccccc3)c(Cl)nc(NCc3ccc(Cl)cc3)c2=O)cc1 [1507-46] |  |  | 8 |  | IC50 (TF-VIIa; [3]): 4.3 µM
28 | N=C(N)c1ccc(CNC(=O)Cn2c(-c3ccc4c(c3)OCO4)c(Cl)nc(NCCc3cccc(Cl)c3)c2=O)cc1 [1471-46] |  |  | 21 | 13 | 
